Key:
[1] = system: heart mRNA levels (Nppa, Ctgf, mtDNA encoded genes, PPARα/RXRα target genes); assay: RT-PCR of heart transcripts and mitochondrial RNA junctions; type: in vivo, mouse; settings: ISO treated hearts, NR in the presence of GW6471
Description: RNA Extraction and Quantitative Real-Time Polymerase Chain Reaction (RT-PCR). Total RNA was isolated from frozen heart tissue using the RNeasy fibrous Kit (Qiagen). Total RNA was reverse-transcribed into first-strand cDNA using Iscript (Bio-rad) according to manufacturer's guidelines. Real Time PCR was performed using SYBR green (Bio-Rad). Results of mRNA levels were normalized to 18S rRNA levels and reported as fold-change over control.

cardiac mitochondria = assay: Isolated cardiac mitochondria respiration (oxygen electrode); type: in vivo, mouse; settings: ISO treated mice, GW6471 in addition to NR
Description: Mitochondrial Isolation from cardiac tissue. Hearts were excised from mice, the aortas and atria were removed. Heart tissues were rinsed briefly in ice-cold mitochondria isolation medium (MIM) (70 mM sucrose, 220 mM mannitol, 5 mM MOPS, 1 mM EDTA, 0.025% fatty acid-free BSA, pH 7.4 with 5M KOH) to remove residual blood. Tissues were minced on ice and resuspended in fresh MIM, followed by trypsin digestion (10 ug/ml) and incubated on ice for 10 min. Trypsin digestion was stopped by the addition of trypsin inhibitor (0.5 mg/ml) and additional BSA (1 mg/ml) to MIM. The tissue pellets were resuspended in fresh MIM containing 1 mg/ml BSA, and transferred to a Teflon-glass tube and homogenized on ice with a Teflon pestle. The homogenates were centrifuged for 10 min at 800×g at 4° C. The supernatants were collected and centrifuged for 10 min at 8,000×g at 4° C. The supernatant was discarded and the mitochondrial pellets were resuspended in MIM to wash. The resuspension was centrifuged for 10 min at 8,000×g at 4° C., and the supernatant discarded. The mitochondrial pellet was resuspended to a concentrated volume for protein quantification by BCA Assay (Pierce).
Mitochondrial respirations. Isolated mitochondria respiration experiments were performed in an Clark type oxygen electrode Oxytherm System (Hansatech Instruments) at 30C. Briefly, freshly isolated mitochondria were added to respiration buffer (125 mM KCl, 20 mM HEPES, 3 mM MgCl2, 400 μM EGTA, 5 mM KH2PO4, 0.2% BSA (fatty acid free), pH 7.2) and placed in the respiration chamber to measure baseline respiration (State 1). The change in oxygen levels following the immediate addition of substrates (pyruvate/malate (5 mM/2 mM) or palmitoylcarnitine/malate (50 μM/2 mM) (State 2) followed by the sequential addition of 2.5 mM ADP (State 3), […] Oligomycin (State 4p) and 1 μM FCCP (FCCP Max). Antimycin A (2.5 μM) was added last to measure the residual oxygen consumption not accounted for by the electron transfer chain and it was subtracted from the previous measurements.

[2] = system: isoproterenol (ISO) induced heart failure in WT and Sirt3Ko mice; assay: Isoproterenol (ISO) minipump induced heart failure, echocardiography and HW/TL; type: in vivo, mouse; settings: 14 days of ISO, NR plus GW6471 4.5 mg/kg/day
Description: Minipump implantation. Pathologic hypertrophy was induced by treating male (3-4 months old) Sirt3ko and WT mice with isoproterenol (ISO) or vehicle for 14 days. Mice with and without GW6471(4.5 mg/kg/day) were treated with NR (500 mg/kg body weight IP daily) or vehicle starting at day one after mini-pump insertion. Briefly, an incision was made in the skin between the shoulder blades. A deep subcutaneous pocket was made caudal to the incision using blunt dissection. The sterile minipump (Alzet #2002) was inserted into the pocket, and the incision was closed with wound clips. Isoproterenol (30 mg/kg/day) was delivered by osmotic minipump for 14 days. Minipumps carrying saline were used as a control.
Transthoracic Echocardiography. Echocardiography of hearts was performed at indicated time after surgery using the VEVO 2100 high-frequency, high-resolution digital imaging system (VisualSonics) equipped with a MS400 Microscan Transducer on anesthetized mice (0.5%-2% isoflurane in 95% oxygen). Measurements were made when heart rate was >450 bpm. Cardiac function and geometry measurements were measured in parasternal short axis view. M-mode images were used for analysis and calculated by the average of at least three cardiac cycles and carried out in a blind fashion. Hearts were harvested at 12-week post-surgery for subsequent experiments and biochemical assays.
Organ weight and histological assessment. Hearts from mice were harvested, rinsed briefly in 1×PBS, blotted dry, and weighed. Lungs from the same mice were harvested, weighed, then dried at 56 C. After 72 hours the lungs were weighed again. Heart weight (HW) and Lung weight (LW) was normalized to tibia length (TL) to assess changes in hypertrophic growth and lung edema, respectively. For histology, hearts were perfusion fixed with 10% neutral buffered formalin. Longitudinal sections of hearts were stained with Masson's Trichrome for assessment of fibrosis by the University of Washington Histology and Imaging Core.

RXRα = assay: Chromatin immunoprecipitation (ChIP) of RXRα at the Acadm promoter PPRE; type: in vivo; settings: ISO mouse hearts, NR plus GW6471
Description: Chromatin immunoprecipitation (ChIP). The EZ ChIP kit (EMD Millipore catalog #17-371) was used according to the manufacturer's protocol. Briefly, heart tissue was cut into small pieces using a razor blade in a petri dish on ice. The cubed tissue was incubated in fixation solution (1% formaldehye) in a conical tube and rotated at room temperature for 15 minutes to crosslink proteins and chromatin. The reaction was stopped by adding 0.125M Glycine for 5 min at room temperature. The contents were homogenized with a hand-held tissue homogenizer for 45 seconds then pelleted by centrifugation for 3 minutes at 1,250×g at 4C. The supernatant was discarded and the pellet was resuspended in 10 ml ice-cold PBS wash buffer followed by centrifugation at 1,250×g for 3 minutes. This was wash step was repeated on ice. The supernatant was discarded and the pellet resuspended in 5 ml chromatin prep buffer and incubated on ice for 10 minutes. The resuspended pellet was homogenized on ice with a dounce homogenizer for 30 strokes and then contents transferred to new conical tube on ice. The suspension was centrifuged 3 minutes at 1,250×g at 4C then supernatant discarded. The pellet was resuspended in 1 ml Chip buffer and transferred to new centrifuge tube then incubated on ice for 10 minutes. […] Purified chromatin was analyzed on a 1% agarose gel to determine the shearing efficiency. […]

CCC(=O)NC[C@H](Cc1ccc(OCCc2nc(-c3ccccc3)oc2C)cc1)N/C(C)=C\C(=O)c1ccc(C(F)(F)F)cc1 [GW6471]
PPARα/RXRα target gene expression [1]: failed to preserve
Restoration by NR of PLC supported State 3 respiration (cardiac mitochondria): clearly blocked
Protection by NR (FS %, cardiac hypertrophy) [2]: blocked
NR-induced increase of RXRα binding occupancy at the Acadm PPRE (RXRα): blocked
